Measurements taken from US11478478B2, “2,3-disubstituted 1-acyl-4-amino-1,2,3,4-tetrahydroquinoline derivatives and their use as bromodomain inhibitors” (GLAXOSMITHKLINE INTELLECTUAL PROPERTY (NO.2) LIMITED, priority 2013, dated 2022).
Structures can show the parent of a compound that is named as a salt.

Biological target: T1, BRD4 BD2 (Homo sapiens, UniProt O60885, Y97A)
T1 construct: BRD4 (1-477) (Y97A) and (Y390A); made in house; host or cells: E. coli (pET15b vector)
Assay: TR-FRET binding assay, BRD4 BD2 (BD1-mutated protein)
Settings: read-out: pIC50 in the BRD4 BD2 assay (converted)
Description: Time Resolved Fluorescence Resonance Energy Transfer (TR-FRET) Assay Binding was assessed using a time resolved fluorescent resonance energy transfer binding assay. This utilises a 6 His purification tag at the N-terminal of the proteins as an epitope for an anti-6 His antibody labeled with Europium chelate (PerkinElmer AD0111) allowing binding of the Europium to the proteins which acts as the donor fluorophore. A small molecule, high affinity binder of the bromodomains BRD2, BRD3, BRD4 and BRDT has been labeled with Alexa Fluor647 (Reference Compound X) and this acts as the acceptor in the FRET pair.
In the absence of a competing compound, excitation of the Europium causes the donor to emit at λ618 nm which excites the Alexa labelled bromodomain binding compound leading to an increased energy transfer that is measurable at λ647 nM. In the presence of a sufficient concentration of a compound that can bind these proteins, the interaction is disrupted leading to a quantifiable drop in fluorescent resonance energy transfer.
The binding of the compounds of formula (I) to Bromodomains BRD2, BRD3, BRD4 and BRDT was assessed using mutated proteins to detect differential binding to either Binding Domain 1 (BD1) or Binding Domain 2 (BD2) on the bromodomain. These single residue mutations in the acetyl lysine binding pocket greatly lower the affinity of the fluoroligand (Reference Compound X) for the mutated domain (>1000 fold selective for the non-mutated domain). Therefore in the final assay conditions, binding of the fluoroligand to the mutated domain cannot be detected and subsequently the assay is suitable to determine the binding of compounds to the single non-mutated bromodomain.
Recombinant Human Bromodomains [(BRD2 (1-473) (Y113A) and (Y386A), BRD3 (1-435) (Y73A) and (Y348A) BRD4 (1-477) (Y97A) and (Y390A) and BRDT (1-397) (Y66A) and (Y309A)] were expressed in E. coli cells (in pET15b vector for BRD2/3/4 and in pET28a vector for BRDT) with a 6-His tag at the N-terminal. The His-tagged Bromodomain pellet was resuspended in 50 mM HEPES (pH7.5), 300 mM NaCl, 10 mM imidazole & 1 μl/ml protease inhibitor cocktail and extracted from the E. coli cells using sonication and purified using a nickel sepharose high performance column, the proteins were washed and then eluted with a linear gradient of 0-500 mM imidazole with buffer 50 mM HEPES (pH7.5), 150 mM NaCl, 500 mM imidazole, over 20 column volumes. Final purification was completed by Superdex 200 prep grade size exclusion column. Purified protein was stored at −80° C. in 20 mM HEPES pH 7.5 and 100 mM NaCl. Protein identity was confirmed by peptide mass fingerprinting and predicted molecular weight confirmed by mass spectrometry.
All assay components were dissolved in buffer composition of 50 mM HEPES pH7.4, 50 mM NaCl, 5% Glycerol, 1 mM DTT and 1 mM CHAPS. The final concentration of bromodomain proteins were 10 nM and the Alexa Fluor647 ligand was at Kd. These components were premixed and 5 μl of this reaction mixture was added to all wells containing 50 nl of various concentrations of test compound or DMSO vehicle (0.5% DMSO final) in Greiner 384 well black low volume microtitre plates and incubated in dark for 30 minutes at rt. 5 μl of detection mixture containing 1.5 nM final concentration anti-6His Europium chelate was added to all wells and a further dark incubation of at least 30 minutes was performed. Plates were then read on the Envision platereader, (λex=317 nm, donor λem=615 nm; acceptor λem=665 nm; Dichroic LANCE dual). Time resolved fluorescent intensity measurements were made at both emission wavelengths and the ratio of acceptor/donor was calculated and used for data analysis. All data was normalized to the mean of 16 high (inhibitor control—Example 11 of WO 2011/054846A1) and 16 low (DMSO) control wells on each plate. A four parameter curve fit of the following form was then applied: y=a+((b−a)/(1+(10^/10^)^d) […]

SMILES	IC50 [nM]
CC(=O)N1c2ccc(F)cc2[C@H](Nc2ncccc2C(N)=O)[C@@H](C)[C@@H]1C1CC1 [Example 523, 2-(((2S,3R,4R)-1-acetyl-2-cyclopropyl-6-fluoro-3-methyl-1,2,3,4-tetrahydroquinolin-4-yl)amino)nicotinamide]	100
CC[C@H]1[C@H](C)[C@@H](Nc2cccc(C)n2)c2cc(F)ccc2N1C(C)=O (single isomer, unassigned) [Example 146a]	100
CC(=O)N1c2ccc(C(N)=O)cc2[C@H](Nc2cccc(F)c2)[C@@H](C)[C@@H]1C1CC1 [Example 359, (2S,3R,4R)-1-acetyl-2-cyclopropyl-4-((3-fluorophenyl)amino)-3-methyl-1,2,3,4-tetrahydroquinoline-6-carboxamide]	100
Cc1ccnc(N[C@H]2c3cc(C(N)=O)ccc3N(C(=O)C(C)C)[C@@H](C3CC3)[C@@H]2C)n1 [Example 422, (2S,3R,4R)-2-cyclopropyl-1-isobutyryl-3-methyl-4-((4-methylpyrimidin-2-yl)amino)-1,2,3,4-tetrahydroquinoline-6-carboxamide]	1000 to 100000
CC(=O)N1c2ccc(N3CCNCC3)cc2[C@H](Nc2ccccc2)[C@@H](C)[C@@H]1C (racemic) [Example 69, rac-1-((2S,3R,4R)-2,3-dimethyl-4-(phenylamino)-6-(piperazin-1-yl)-3,4-dihydroquinolin-1(2H)-yl)ethanone]	100
CC(=O)N1c2ccc(N3CCNCC3)cc2[C@H](Nc2ccccc2)[C@@H](C)[C@@H]1C1CC1 (racemic) [Example 94, rac-1-((2S,3R,4R)-2-cyclopropyl-3-methyl-4-(phenylamino)-6-(piperazin-1-yl)-3,4-dihydroquinolin-1(2H)-yl)ethanone, hydrochloride]	100
CC(=O)N1c2ccc(C3=CCOCC3)cc2[C@H](Nc2cccc(C)n2)[C@@H](C)[C@@H]1C1CC1 (racemic) [Example 85, rac-1-((2S,3R,4R)-2-cyclopropyl-6-(3,6-dihydro-2H-pyran-4-yl)-3-methyl-4-((6-methylpyridin-2-yl)amino)-3,4-dihydroquinolin-1(2H)-yl)ethanone, formic acid salt]	100
CC[C@H]1[C@H](C)[C@@H](Nc2ccc(C#N)cc2)c2cc(F)ccc2N1C(C)=O (racemic) [Example 62, rac-4-(((2S,3R,4R)-1-acetyl-2-ethyl-6-fluoro-3-methyl-1,2,3,4-tetrahydroquinolin-4-yl)amino)benzonitrile]	100
COCCn1cc(-c2ccc3c(c2)[C@H](Nc2cnc(C)cn2)[C@@H](C)[C@H](C2CC2)N3C(C)=O)cn1 (single isomer, unassigned) [Example 138a]	100
CC(=O)N1c2ccc(C3=CCNCC3)cc2[C@H](Nc2ccc(C#N)cc2)[C@@H](C)[C@@H]1C1CC1 (racemic) [Example 192, rac-4-(((2S,3R,4R)-1-acetyl-2-cyclopropyl-3-methyl-6-(1,2,3,6-tetrahydropyridin-4-yl)-1,2,3,4-tetrahydroquinolin-4-yl)amino)benzonitrile]	100
CC(=O)N1c2ccccc2[C@H](Nc2ccc(F)cc2)[C@@H](C)[C@@H]1C1CC1 (racemic) [Example 32, rac-1-((2S,3R,4R)-2-Cyclopropyl-4-((4-fluorophenyl)amino)-3-methyl-3,4-dihydroquinolin-1(2H)-yl)ethanone]	100
CC(=O)N1c2ccc(C3=CCOCC3)cc2[C@H](Nc2ncccn2)[C@@H](C)[C@@H]1C1CC1 (racemic) [Example 177, rac-1-((2S,3R,4R)-2-cyclopropyl-6-(3,6-dihydro-2H-pyran-4-yl)-3-methyl-4-(pyrimidin-2-ylamino)-3,4-dihydroquinolin-1(2H)-yl)ethanone, formic acid salt]	100
CC(=O)N1c2ccc(N3CCOCC3)nc2[C@H](Nc2ccccc2)[C@@H](C)[C@@H]1C1CC1 (racemic) [Example 110, rac-1-((2S,3R,4R)-2-cyclopropyl-3-methyl-6-morpholino-4-(phenylamino)-3,4-dihydro-1,5-naphthyridin-1(2H)-yl)ethanone]	1000 to 100000
COc1cnc(N[C@H]2c3cc(C(N)=O)ccc3N(C(C)=O)[C@@H](C3CC3)[C@@H]2C)nc1C [Example 348, (2S,3R,4R)-1-acetyl-2-cyclopropyl-4-((5-methoxy-4-methylpyrimidin-2-yl)amino)-3-methyl-1,2,3,4-tetrahydroquinoline-6-carboxamide]	1000 to 100000
CC(=O)N1c2ccc(N3CCOC(C)C3)cc2[C@H](Nc2ccccc2)[C@@H](C)[C@@H]1C (mixture of isomers) [Example 77, 1-((rac-2S,3R,4R)-2,3-dimethyl-6-(2-methylmorpholino)-4-(phenylamino)-3,4-dihydroquinolin-1(2H)-yl)ethanone]	100

The remaining lines, values ahead:

IC50 [nM]	SMILES
100	CC(=O)N1c2ccc(C(=O)NC3CCOCC3)cc2[C@H](Nc2ncccn2)[C@@H](C)[C@@H]1C1CC1 [Example 484, (2S,3R,4R)-1-acetyl-2-cyclopropyl-3-methyl-4-(pyrimidin-2-ylamino)-N-(tetrahydro-2H-pyran-4-yl)-1,2,3,4-tetrahydroquinoline-6-carboxamide]
100	CC(=O)N1c2ccc(C(=O)NCCO)cc2[C@H](Nc2ncc(F)c(C)n2)[C@@H](C)[C@@H]1C [Example 430, (2S,3R,4R)-1-acetyl-4-((5-fluoro-4-methylpyrimidin-2-yl)amino)-N-(2-hydroxyethyl)-2,3-dimethyl-1,2,3,4-tetrahydroquinoline-6-carboxamide]
1000 to 100000	CC(=O)N1c2ccc(N3CCOCC3)cc2[C@H](Nc2cnc(C)cn2)[C@@H](C)[C@@H]1C1CC1 (racemic) [Example 211, rac-1-((2S,3R,4R)-2-cyclopropyl-3-methyl-4-((5-methylpyrazin-2-yl)amino)-6-morpholino-3,4-dihydroquinolin-1(2H)-yl)ethanone]
100	CC(=O)N1c2cnccc2[C@H](Nc2ccccc2)[C@@H](C)[C@@H]1C (racemic) [Example 115, rac-1-((2S,3R,4R)-2,3-dimethyl-4-(phenylamino)-3,4-dihydro-1,7-naphthyridin-1(2H)-yl)ethanone formate]
1000 to 100000	CC(=O)N1c2ccc(F)cc2[C@H](Nc2ccnc(O)n2)[C@@H](C)[C@@H]1C1CC1 [Example 519, 1-((2S,3R,4R)-2-cyclopropyl-6-fluoro-4-((2-hydroxypyrimidin-4-yl)amino)-3-methyl-3,4-dihydroquinolin-1(2H)-yl)ethanone]
100	CC[C@H]1[C@H](C)[C@@H](Nc2cccc(C)n2)c2cc(C(=O)NCCC#N)ccc2N1C(C)=O (racemic) [Example 283, rac-(2S,3R,4R)-1-acetyl-N-(2-cyanoethyl)-2-ethyl-3-methyl-4-((6-methylpyridin-2-yl)amino)-1,2,3,4-tetrahydroquinoline-6-carboxamide]
1000 to 100000	CC[C@H]1[C@H](C)[C@@H](Nc2cnc(C#N)cn2)c2cc(N3CCNCC3)ccc2N1C(C)=O (racemic) [Example 221, rac-5-(((2S,3R,4R)-1-acetyl-2-ethyl-3-methyl-6-(piperazin-1-yl)-1,2,3,4-tetrahydroquinolin-4-yl)amino)pyrazine-2-carbonitrile]
100	CC(=O)N1c2ccc(C(N)=O)cc2[C@H](Nc2ccc(C#N)cc2)[C@@H](C)[C@@H]1C1CC1 [Example 378, (2S,3R,4R)-1-acetyl-4-((4-cyanophenyl)amino)-2-cyclopropyl-3-methyl-1,2,3,4-tetrahydroquinoline-6-carboxamide]
